Where “and” joins values, the source holds several entries; their conditions need not be identical. Identical values can stand only once.
Legend:
CYP1A2 = CYP1A2 (Homo sapiens, UniProt P05177); experiment: CYP inhibition, CYP1A2; type: in vitro ADME; settings: human liver microsomes
Method: (§1) The study was conducted by WuXi AppTec, Co., China, using the time-dependent (TDI) method. […] Following incubation with substrates (phenacetin for 1A2, diclofenac for 2C9, S-(+) mephenytoin for 2C19, dextromethorphan for 2D6, and midazolam or testosterone for 3A4), reactions were stopped by adding ice-cold acetonitrile, the samples were analyzed for the formation of metabolites by LC-MS/MS, and the percentage of inhibition was determined.

[1] = Plasma-protein binding, human; type: in vitro ADME; settings: pH 7.4
Method: (§2) Tests were conducted by WuXi AppTec, Co., China, using the equilibrium dialysis method and a 96-well plate format. The test compound (at 2 μM, in triplicate) in solution in plasma (Balb/c mouse, golden (Syrian) hamster, Sprague-Dawley rat, Beagle dog or human) was dialyzed against 100 mM phosphate-buffered saline (pH 7.4) on a rotating plate incubated for 6 h at 37 °C. Following the precipitation of protein with acetonitrile or acetonitrile/methanol containing both 1% phosphoric acid, the amount of compound present in each compartment was quantified by LC-MS/MS.

CYP2D6 = CYP2D6 (Homo sapiens, UniProt P10635); experiment: CYP inhibition, CYP2D6; type: in vitro ADME; settings: human liver microsomes
Chain of CYP2D6 (P10635 whole entry): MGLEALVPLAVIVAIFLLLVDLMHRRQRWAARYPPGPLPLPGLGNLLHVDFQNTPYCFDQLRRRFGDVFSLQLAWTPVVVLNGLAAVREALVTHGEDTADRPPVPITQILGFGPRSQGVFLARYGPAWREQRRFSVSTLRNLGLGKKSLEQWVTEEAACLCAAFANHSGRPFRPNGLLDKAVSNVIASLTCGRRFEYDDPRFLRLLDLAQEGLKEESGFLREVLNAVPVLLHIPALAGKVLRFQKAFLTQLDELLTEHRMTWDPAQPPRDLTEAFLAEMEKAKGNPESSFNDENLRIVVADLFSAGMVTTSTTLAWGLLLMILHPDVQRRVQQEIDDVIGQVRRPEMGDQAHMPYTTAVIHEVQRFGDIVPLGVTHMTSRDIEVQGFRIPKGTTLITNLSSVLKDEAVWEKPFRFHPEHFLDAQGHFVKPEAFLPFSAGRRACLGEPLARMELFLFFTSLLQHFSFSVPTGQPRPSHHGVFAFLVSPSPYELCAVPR
Method: as §1

[2] = Metabolite identification in microsomes; type: in vitro ADME, rat, mouse, dog, human, hamster
Method: Metabolite identification studies were conducted at WuXi AppTec, China. DNDI-6148 was incubated at 10 μM in the presence of Beagle dog and Sprague-Dawley rat liver microsomes (1 mg/mL) for 60 min. Following precipitation with a solution of formic acid and acetonitrile, metabolites were identified by LC-UV-MSn (n = 1–2).

CYP2C9 = CYP2C9 (Homo sapiens, UniProt P11712); experiment: CYP inhibition, CYP2C9; type: in vitro ADME; settings: human liver microsomes
Chain of CYP2C9 (P11712 whole entry): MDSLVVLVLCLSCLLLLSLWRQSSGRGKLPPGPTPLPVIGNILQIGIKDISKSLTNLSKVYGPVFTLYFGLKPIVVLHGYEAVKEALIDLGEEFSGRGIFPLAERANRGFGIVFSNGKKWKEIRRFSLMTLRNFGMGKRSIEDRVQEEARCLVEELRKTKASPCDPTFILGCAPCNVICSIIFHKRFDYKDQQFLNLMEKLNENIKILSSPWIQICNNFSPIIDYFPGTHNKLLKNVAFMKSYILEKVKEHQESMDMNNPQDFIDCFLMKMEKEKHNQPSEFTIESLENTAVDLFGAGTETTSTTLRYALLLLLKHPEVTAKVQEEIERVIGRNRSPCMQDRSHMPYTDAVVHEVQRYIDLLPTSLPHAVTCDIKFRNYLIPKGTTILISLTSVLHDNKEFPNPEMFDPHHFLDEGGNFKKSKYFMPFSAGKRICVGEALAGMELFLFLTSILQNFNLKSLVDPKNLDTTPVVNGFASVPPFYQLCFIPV
Method: as §1

CYP3A4 = CYP3A4 (Homo sapiens, UniProt P08684); experiment: CYP inhibition, CYP3A4; type: in vitro ADME; settings: human liver microsomes
Chain of CYP3A4 (P08684 2-503 limits assumed): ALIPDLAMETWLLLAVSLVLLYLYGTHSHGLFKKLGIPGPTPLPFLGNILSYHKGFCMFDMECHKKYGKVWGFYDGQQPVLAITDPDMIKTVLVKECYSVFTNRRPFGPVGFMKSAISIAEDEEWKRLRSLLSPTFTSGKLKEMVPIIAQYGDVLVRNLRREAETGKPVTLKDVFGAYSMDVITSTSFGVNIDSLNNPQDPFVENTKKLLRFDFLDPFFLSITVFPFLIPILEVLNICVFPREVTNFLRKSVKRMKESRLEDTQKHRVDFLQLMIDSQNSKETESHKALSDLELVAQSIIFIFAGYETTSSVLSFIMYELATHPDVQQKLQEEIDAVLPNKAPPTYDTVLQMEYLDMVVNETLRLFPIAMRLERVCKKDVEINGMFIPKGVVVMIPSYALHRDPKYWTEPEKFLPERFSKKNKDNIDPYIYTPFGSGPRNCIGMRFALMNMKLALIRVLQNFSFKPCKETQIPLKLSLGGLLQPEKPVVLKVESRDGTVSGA
Method: as §1

CYP2C19 = CYP2C19 (Homo sapiens, UniProt P33261); experiment: CYP inhibition, CYP2C19; type: in vitro ADME; settings: human liver microsomes
Chain of CYP2C19 (P33261 whole entry): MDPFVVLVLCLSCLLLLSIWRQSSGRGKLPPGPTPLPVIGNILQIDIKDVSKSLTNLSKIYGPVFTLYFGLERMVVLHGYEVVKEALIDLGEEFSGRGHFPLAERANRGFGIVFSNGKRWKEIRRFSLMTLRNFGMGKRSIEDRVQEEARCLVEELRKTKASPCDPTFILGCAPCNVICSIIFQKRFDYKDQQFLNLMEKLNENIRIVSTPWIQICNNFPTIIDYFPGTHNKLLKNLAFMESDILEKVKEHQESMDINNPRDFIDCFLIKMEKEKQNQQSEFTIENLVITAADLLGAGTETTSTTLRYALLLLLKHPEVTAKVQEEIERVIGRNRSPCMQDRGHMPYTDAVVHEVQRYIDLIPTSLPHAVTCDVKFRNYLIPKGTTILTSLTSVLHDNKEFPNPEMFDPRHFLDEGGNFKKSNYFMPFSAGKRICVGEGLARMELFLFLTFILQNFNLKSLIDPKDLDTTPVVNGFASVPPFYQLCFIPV
Method: as §1

[3] = Plasma-protein binding, mouse; type: in vitro ADME; settings: Balb/c, pH 7.4
Method: as §2

[4] = Hepatocyte stability, dog; type: in vitro ADME; settings: Beagle, cryopreserved dog hepatocytes
Method: Tests were performed by WuXi AppTec, China. Following a viability check of cryopreserved hepatocytes from Sprague-Dawley rat, Beagle dog, or human, test compounds (at 1 μM) or positive controls 7-ethoxycoumarin and 7-hydroxycoumarin (at 3 μM) were incubated at 37 °C, 5% CO2 with hepatocytes in Williams’ Medium E. Following incubation of 15, 30, 60, 90, 120, 180, and 240 min, reactions were stopped by the addition of acetonitrile, the samples were centrifuged, and LC-MS/MS analysis was conducted using tolbutamide as an internal standard.

[5] = test system: CPSF3-overexpressing L. donovani promastigotes; experiment: Drug sensitivity, CPSF3-overexpressing L. donovani promastigotes; type: cell-based; settings: Leishmania donovani
Method: (§3) The clonal L. donovani cell line LdBOB (derived from MHOM/SD/62/1S-CL2D) was grown as promastigotes at 28 °C, as described previously. Bloodstream form T. brucei MiTat 1.2 clone 221a and its derived subline, 2T1, were cultured at 37 °C in the presence of 5% CO2 in HMI9-T medium, as described previously. T. brucei cell lines overexpressing CPSF3 and overexpressing a mutated version of CPSF3 (Asn232His) were generated as part of a previous study and cultured as described.[19]
(§4) L. donovaniCPSF3 gene (LdBPK_343210.1) was custom synthesized by GeneArt and ligated into the pIR1SAT vector via BglII restriction sites. Using the Q5 mutagenesis kit (NEB) and the pIR1SAT-LdCPSF3^WT construct as a template, mutations encoding A655C and Asn219His change to CPSF3^WT were introduced. Mutations were introduced using the specific primers 5′-GAGTACACGGCATCCGC-3′ and 5′-[…]-3′ and as per manufacturers’ instructions. Wild-type and mutated pIR1SAT constructs were digested with SwaI and transfected into L. donovani promastigotes, as previously described. Resistant clones were selected with nourseothricin (100 μg/mL), and two clones per transfection were selected for further study.
(§5) Drug sensitivity assays with wild-type and transgenic T. brucei and L. donovani cell lines were carried out as previously described.[31],[32]

[6] = test system: L. donovani clones, CPSF3 Asn219His; experiment: Drug sensitivity, L. donovani CRISPR-Cas9 edited CPSF3 Asn219His; type: cell-based; settings: listed as DNDI-6148
Method: (§6) A cell line constitutively expressing Cas9 and T7 RNA polymerase was generated by transfecting 4 × 10^7 promastigotes with the pTB007 vector (10 μg), as previously described.[29] Expression of Cas9 in selected clones was confirmed by western blotting (Figure S1). In addition, the CRISPR-Cas9 system in these parasites was confirmed as functional following the successful tagging of the flagellar protein PF16 with mNeonGreen, as previously described.[29]
(§7) To introduce specific mutations into CPSF3, 3 × 10^6 promastigotes expressing Cas9 and T7 RNA were resuspended in a 110 μL of Human T-Cell Nucleofector reagent and transfected with 18 μL of sgRNA and 4 μg of template using the Amaxa Nucleofector electroporator (program V-033). sgRNA was produced according to the previously established protocol from the Gluenz lab,[30] in which the scaffold primer G00 and a gene-specific forward primer (FwsgRNA) were used (Table S1). Twenty-four hours following transfection, DNDI-6148 was added to cultures at 6 μM. Drug-selected populations were cloned by limiting dilution, EC50s were determined, and genomic DNA was extracted. The CPSF3 gene from CRISPR-edited parasites was amplified by PCR, and the resulting products were sequenced.
as §5

[7] = test system: CPSF3 (Asn219His)-overexpressing L. donovani promastigotes; experiment: Drug sensitivity, CPSF3 (Asn219His)-overexpressing L. donovani promastigotes; type: cell-based; settings: Leishmania donovani
Method: as §3, §4, §5

[8] = test system: L. donovani clones, CPSF3 Asn219His/Glu229Val; experiment: Drug sensitivity, L. donovani CRISPR-Cas9 edited CPSF3 Asn219His/Glu229Val; type: cell-based
Method: as §6, §7, §5

Chain of CYP1A2 (P05177 whole entry): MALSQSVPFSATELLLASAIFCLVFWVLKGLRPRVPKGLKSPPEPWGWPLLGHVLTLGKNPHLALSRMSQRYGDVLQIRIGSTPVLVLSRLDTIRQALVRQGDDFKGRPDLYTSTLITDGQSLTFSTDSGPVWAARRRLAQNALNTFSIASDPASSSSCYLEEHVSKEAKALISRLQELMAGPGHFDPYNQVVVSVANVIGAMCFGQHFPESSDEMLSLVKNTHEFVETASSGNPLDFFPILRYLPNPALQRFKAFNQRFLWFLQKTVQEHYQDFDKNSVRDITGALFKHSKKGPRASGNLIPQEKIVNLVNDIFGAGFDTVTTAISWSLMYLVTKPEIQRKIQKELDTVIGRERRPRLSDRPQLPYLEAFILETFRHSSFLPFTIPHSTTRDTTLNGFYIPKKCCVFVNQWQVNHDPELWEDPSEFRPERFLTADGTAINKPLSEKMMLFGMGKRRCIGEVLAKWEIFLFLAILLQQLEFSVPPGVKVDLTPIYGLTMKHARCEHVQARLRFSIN

Cc1c(C(=O)Nc2ccc3c(c2)B(O)OC3)nnn1-c1ccccn1 [Compound 23, N-(1-Hydroxy-1,3-dihydrobenzo[c][1,2]oxaborol-6-yl)-5-methyl-1-(pyridin-2-yl)-1H-1,2,3-triazole-4-carboxamide]
IC50 (CYP1A2): > 50 µM
fraction unbound at 6 h, 2 µM [1]: 0.08
IC50 (CYP2D6): > 50 µM
reactive metabolite formation ([2]; microsomes, any species): no evidence of reactive metabolite formation
metabolism in rat microsomes ([2]; rat microsomes): No metabolism was detected
IC50 (CYP2C9): > 50 µM
IC50 (CYP3A4): > 50 µM
IC50 (CYP2C19): > 50 µM
fraction unbound at 6 h, 2 µM [3]: 0.07
hepatocyte CLint at 1 μM [4]: 2.4 µL/min/1e6 cells
EC50 [5]: 0.508 ± 0.013 µM
Fold change (relative to WT) [6]: 3.0 fold and 3 fold
EC50 [7]: 1.67 ± 0.051 µM
Fold change (relative to WT) ([8]; CRISPR-Cas9 edited Asn219His/Glu229Val, listed as DNDI-6148): > 5 fold
EC50 ([8]; Leishmania donovani): 2830 ± 139 µM

Reference: publication PMC8591608, “DNDI-6148: A Novel Benzoxaborole Preclinical Candidate for the Treatment of Visceral Leishmaniasis” (Journal of Medicinal Chemistry, 2021)
